Drawing on PubChem BioAssay AID248 (DTP/NCI, 2004), this text covers T/C for 18 compounds.

Each structure is given as a SMILES string. “And” between values parts separate entries of the source, which are not always exact repeats. Identical values can stand only once. Inconclusive results and toxic doses are left out.

For this assay, the system named is L1210 leukemia ip in BDF1 mice, survival T/C. Kind of assay: NCI In Vivo Anticancer Drug Screen. Data for tumor model L1210 Leukemia (intraperitoneal) in B6D2F1 (BDF1) mice. The conditions noted are these: endpoint: mean survival time, higher = longer survival. The essentials:
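Each compound was tested against a transplantable tumor grown in mice. The endpoint was survival, with treated animals benchmarked against vehicle controls as a simple ratio.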

The mark [1] stands for this setting: dose: 200.0 mg/kg/injection, schedule: Q04DX002 (ip), vehicle: Klucel (hydroxypropylcellulose) (HPC).
Setting [2] is: dose: 400.0 mg/kg/injection, schedule: Q04DX002 (ip), vehicle: Klucel (hydroxypropylcellulose) (HPC).
Where [3] appears, read: dose: 100.0 mg/kg/injection, schedule: Q04DX002 (ip), vehicle: Klucel (hydroxypropylcellulose) (HPC).
Setting [4] is: dose: 50.0 mg/kg/injection, schedule: Q04DX002 (ip), vehicle: Klucel (hydroxypropylcellulose) (HPC).
[5] abbreviates: dose: 100.0 mg/kg/injection, schedule: Q01DX001 (ip), vehicle: Klucel (hydroxypropylcellulose) (HPC).
Where [6] appears, read: dose: 100.0 mg/kg/injection, schedule: Q04DX003 (ip), vehicle: Klucel (hydroxypropylcellulose) (HPC).
[7] abbreviates: dose: 200.0 mg/kg/injection, schedule: Q01DX001 (ip), vehicle: Klucel (hydroxypropylcellulose) (HPC).
Where [8] appears, read: dose: 200.0 mg/kg/injection, schedule: Q04DX003 (ip), vehicle: Klucel (hydroxypropylcellulose) (HPC).
The mark [9] stands for this setting: dose: 400.0 mg/kg/injection, schedule: Q04DX003 (ip), vehicle: Klucel (hydroxypropylcellulose) (HPC).
[10] abbreviates: dose: 100.0 mg/kg/injection, schedule: Q04DX003 (ip), vehicle: saline with Tween-80.
Where [11] appears, read: dose: 200.0 mg/kg/injection, schedule: Q04DX003 (ip), vehicle: saline with Tween-80.
[12] abbreviates: dose: 400.0 mg/kg/injection, schedule: Q04DX003 (ip), vehicle: saline with Tween-80.
[13] abbreviates: dose: 100.0 mg/kg/injection, schedule: Q01DX009 (ip), vehicle: Klucel (hydroxypropylcellulose) (HPC).
[14] abbreviates: dose: 200.0 mg/kg/injection, schedule: Q01DX009 (ip), vehicle: Klucel (hydroxypropylcellulose) (HPC).
[15] abbreviates: dose: 400.0 mg/kg/injection, schedule: Q01DX009 (ip), vehicle: Klucel (hydroxypropylcellulose) (HPC).

As for `CNC(=N)c1ccc(NC(=N)c2ccc(NC(=O)c3ccc(C(=O)Nc4ccc(C(=N)Nc5ccc(C(=N)NC)cc5)cc4)cc3)cc2)cc1`, the T/C by setting is: (dose: 6.25 mg/kg/injection, schedule: Q01DX Z (ip), vehicle: carboxymethylcellulose (CMC)) 124 % of control; (dose: 100.0 mg/kg/injection, schedule: Q01DX Z (ip), vehicle: carboxymethylcellulose (CMC)) 119 % of control.
On to `Cc1cn(C2CCCCC2)c(=O)[nH]c1=O`, for which the T/C reads like this: (dose: 25.0 mg/kg/injection, schedule: Q01DX Z (ip), vehicle: methylcellulose (MC)) 89 % of control; (dose: 50.0 mg/kg/injection, schedule: Q01DX Z (ip), vehicle: methylcellulose (MC)) 92 % of control.
As for `CC(=O)[C@H]1CC[C@H]2[C@@H]3C[C@H](F)C4=CC(=O)CC[C@]4(C)[C@@]3(F)[C@@H](O)C[C@]12C`, the T/C by setting is: (dose: 50.0 mg/kg/injection, schedule: Q01DX009 (sc), vehicle: steriod suspending solution) 124 % of control; (dose: 100.0 mg/kg/injection, schedule: Q01DX009 (sc), vehicle: steriod suspending solution) 101 % of control; (dose: 100.0 mg/kg/injection, schedule: Q04DX003 (sc), vehicle: steriod suspending solution) 97 % of control; (dose: 200.0 mg/kg/injection, schedule: Q01DX009 (sc), vehicle: steriod suspending solution) 104 % of control; (dose: 200.0 mg/kg/injection, schedule: Q04DX003 (sc), vehicle: steriod suspending solution) 105 % of control; (dose: 400.0 mg/kg/injection, schedule: Q04DX003 (sc), vehicle: steriod suspending solution) 103 % of control.
In the case of `CN(CCC#N)c1ccc(-c2cc(C(=O)O)c3cc4ccccc4cc3n2)cc1`, the T/C was 110 % of control under setting [1] and 95 % of control under setting [2].
Turning to `COc1cc(Cl)ccc1NC(=O)Oc1ccc2ccccc2c1`, the T/C reads like this: under setting [3], 108 % of control; under setting [1], 90 % of control; under setting [2], 104 % of control.
On to `C=Cc1c[nH]c(=O)[nH]c1=O`, for which the T/C is, setting by setting: (dose: 25.0 mg/kg/injection, schedule: Q04DX002 (ip), vehicle: Klucel (hydroxypropylcellulose) (HPC)) 94 % of control; under setting [4], 94 % of control; under setting [3], 102 % of control.
Regarding `Cc1nc(SCc2ccccc2)nc(N)c1CN`, the T/C was 113 % of control (dose: 50.0 mg/kg/injection, schedule: Q04DX003 (ip), vehicle: Klucel (hydroxypropylcellulose) (HPC)); 93 % of control under setting [5]; 100 % of control under setting [6]; 98 % of control under setting [7]; 104 % of control under setting [8].
`CCCCCCCCCCCCCCCCOc1ccc(C(=O)OC)cc1N`: the T/C reads like this: under setting [6], 102 % of control; under setting [8], 104 % of control; under setting [9], 96 % of control.
Regarding `O=C(O)c1ccccc1C(=O)Nc1ccccc1Cl`, the T/C runs as follows: under setting [10], 96 % of control; under setting [11], 102 % of control; under setting [12], 102 % of control.
Take `COc1ccc(C2OCC(c3ccccc3)O2)cc1` (configuration not stated): the T/C was 93 % of control (dose: 222.0 mg/kg/injection, schedule: Q01DX Z (ip), vehicle: methylcellulose (MC)) and 93 % of control (dose: 500.0 mg/kg/injection, schedule: Q01DX Z (ip), vehicle: methylcellulose (MC)).
Consider `COC(=O)C1(N)CCCC1`, for which the T/C reads like this: (dose: 11.0 mg/kg/injection, schedule: Q01DX Z (ip), vehicle: carboxymethylcellulose (CMC)) 94 % of control; (dose: 22.0 mg/kg/injection, schedule: Q01DX Z (ip), vehicle: carboxymethylcellulose (CMC)) 107 % of control; (dose: 25.0 mg/kg/injection, schedule: Q01DX009 (ip), vehicle: saline) 107 % of control; (dose: 30.0 mg/kg/injection, schedule: Q01DX009 (ip), vehicle: saline) 108 % of control; (dose: 30.0 mg/kg/injection, schedule: Q01DX Z (ip), vehicle: saline) 116 % of control; (dose: 44.0 mg/kg/injection, schedule: Q01DX009 (ip), vehicle: saline) 121 % of control. The T/C runs as follows: (dose: 45.0 mg/kg/injection, schedule: Q01DX Z (ip), vehicle: saline) 118 % of control; (dose: 50.0 mg/kg/injection, schedule: Q01DX009 (ip), vehicle: saline) 109 % of control; under setting [13], 95 % of control; under setting [6], 104 % of control and 113 % of control; (dose: 100.0 mg/kg/injection, schedule: Q04DX003 (ip), vehicle: saline) 102 % of control; (dose: 150.0 mg/kg/injection, schedule: Q01DX009 (ip), vehicle: saline) 95 % of control. Moreover, the T/C is 104 % of control (dose: 150.0 mg/kg/injection, schedule: Q01DX Z (ip), vehicle: saline); 104 % of control under setting [14]; 119 % of control and 120 % of control (dose: 200.0 mg/kg/injection, schedule: Q01DX009 (ip), vehicle: saline); 121 % of control and 124 % of control under setting [8]; 118 % of control (dose: 200.0 mg/kg/injection, schedule: Q04DX003 (ip), vehicle: saline); 105 % of control and 115 % of control (dose: 300.0 mg/kg/injection, schedule: Q01DX Z (ip), vehicle: carboxymethylcellulose (CMC)). Besides, the T/C by setting is: under setting [15], 121 % of control; (dose: 400.0 mg/kg/injection, schedule: Q01DX009 (ip), vehicle: saline) 98 % of control and 102 % of control; (dose: 400.0 mg/kg/injection, schedule: Q01DX Z (ip), vehicle: carboxymethylcellulose (CMC)) 113 % of control; (dose: 400.0 mg/kg/injection, schedule: Q04DX003 (ip), vehicle: saline) 152 % of control; (dose: 500.0 mg/kg/injection, schedule: Q01DX Z (ip), vehicle: carboxymethylcellulose (CMC)) 110 % of control.
Regarding `c1cc[c]([Pb]([S]c2ncnc3c2nc[n]3[Pb]([c]2ccccc2)([c]2ccccc2)[c]2ccccc2)([c]2ccccc2)[c]2ccccc2)cc1.c1cc[c]([Pb]([S]c2ncnc3nc[nH]c23)([c]2ccccc2)[c]2ccccc2)cc1`, the T/C reads like this: (dose: 5.0 mg/kg/injection, schedule: Q01DX001 (ip), vehicle: other) 103 % of control; (dose: 10.0 mg/kg/injection, schedule: Q01DX001 (ip), vehicle: other) 121 % of control.
Consider `O=C1C2C(C(=O)N1c1ccccc1)N2CCO` (configuration not stated), for which the T/C reads like this: under setting [13], 107 % of control; under setting [6], 113 % of control; under setting [14], 103 % of control; under setting [8], 108 % of control; under setting [15], 97 % of control; under setting [9], 113 % of control.
For `CCCCN(CCCC)CCC(=O)OCC`, the T/C under setting [10] was 94 % of control, the T/C under setting [11] is 101 % of control and the T/C under setting [12] was 89 % of control.
With `CSc1nc(N)c(N=Nc2ccc(S(=O)(=O)Nc3nccc(C)n3)cc2)c(=O)[nH]1`, the T/C reads like this: (dose: 100.0 mg/kg/injection, schedule: Q01DX001 (ip), vehicle: carboxymethylcellulose (CMC)) 86 % of control; (dose: 200.0 mg/kg/injection, schedule: Q01DX001 (ip), vehicle: carboxymethylcellulose (CMC)) 97 % of control; (dose: 400.0 mg/kg/injection, schedule: Q01DX001 (ip), vehicle: carboxymethylcellulose (CMC)) 97 % of control.
Consider `COc1ccc(-n2c(O)c(N=Nc3ccc(Cl)cc3)c(=O)n(-c3ccccc3)c2=S)cc1`, for which the T/C reads like this: (dose: 37.5 mg/kg/injection, schedule: Q01DX001 (ip), vehicle: Klucel (hydroxypropylcellulose) (HPC)) 89 % of control; (dose: 75.0 mg/kg/injection, schedule: Q01DX001 (ip), vehicle: Klucel (hydroxypropylcellulose) (HPC)) 94 % of control; (dose: 150.0 mg/kg/injection, schedule: Q01DX001 (ip), vehicle: Klucel (hydroxypropylcellulose) (HPC)) 92 % of control.
For the compound `Cc1ccc(-n2c(=O)c(N=Nc3ccc(Cl)cc3)c(O)n(-c3ccccc3C)c2=S)cc1`, the T/C reads like this: under setting [5], 97 % of control; under setting [7], 87 % of control; (dose: 400.0 mg/kg/injection, schedule: Q01DX001 (ip), vehicle: Klucel (hydroxypropylcellulose) (HPC)) 92 % of control.
For the compound `O=[N+]([O-])c1ccc(N/N=C(\c2ccccc2)C2CCC2)c([N+](=O)[O-])c1`, the T/C runs as follows: under setting [4], 99 % of control; under setting [3], 96 % of control; under setting [1], 96 % of control.
